Columns and labels:
SOX18[109] HMG fragment = SOX18[109] HMG fragment (Mus musculus (Mouse), UniProt P43680); assay: FP DNA-binding competition assay, SOX18[109] HMG fragment; conditions: for remaining activity at 50 µM: read-out: FP bound fraction (%) 50 μM; for remaining activity at 200 µM: read-out: FP bound fraction (%) 200 μM
In short: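 Fluorescence polarization competition using mouse SOX18[109] fragment (residues 69-177, HMG box plus flanks) at 60 nM with 5 nM 5′-FAM 40 bp Prox1 DNA in 10 mM Tris pH 8.0, 100 mM NaCl, 2-3.33% DMSO. Agitated 5 min RT, 10 min 37° C, 30 min RT, then read (ex 485/em 525 nm), triplicates.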

SOX18-SOX18 homodimer = SOX18-SOX18 homodimer (Homo sapiens (Human), UniProt P35713); assay: ALPHAScreen SOX18-SOX18 homodimerization; assay type: binding; conditions: 5 uM
Chain of SOX18-SOX18 homodimer (P35713 whole entry): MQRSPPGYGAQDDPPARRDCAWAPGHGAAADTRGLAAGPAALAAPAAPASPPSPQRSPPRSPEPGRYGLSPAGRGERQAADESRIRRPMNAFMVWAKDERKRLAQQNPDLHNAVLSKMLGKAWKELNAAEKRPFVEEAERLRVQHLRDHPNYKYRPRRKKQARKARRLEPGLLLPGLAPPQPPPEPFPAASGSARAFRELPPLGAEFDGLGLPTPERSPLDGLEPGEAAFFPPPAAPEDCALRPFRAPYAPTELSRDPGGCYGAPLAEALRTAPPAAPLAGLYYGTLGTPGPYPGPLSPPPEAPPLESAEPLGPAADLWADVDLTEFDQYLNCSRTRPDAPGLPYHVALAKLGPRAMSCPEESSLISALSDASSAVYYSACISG
Method: ALPHAScreen was performed as previously described (Sierecki et al., 2014, Sierecki et al., 2013), using the cMyc detection kit and Proxiplate-384 Plus plates (PerkinElmer). The LTE lysate co-expressing the proteins of interest was diluted in buffer A (25 mM HEPES, 50 mM NaCl). For the assay, 12.5 μL (0.4 μg) of Anti-cMyc coated Acceptor Beads in buffer B (25 mM HEPES, 50 mM NaCl, 0.001% NP40, 0.001% casein) were aliquoted into each well. This was followed by the addition of 2 μL of diluted sample, at different concentration, and 2 μL of biotin labeled GFP-Nanotrap in buffer A. The plates were incubated for 45 min at room temperature, then adding 2 μL (0.4 μg) of streptavidin-coated Donor Beads diluted in buffer A, and incubation in the dark for 45 min at room temperature. The ALPHAScreen signal was measured on an Envision Plate Reader (PerkinElmer), using manufacturer's recommended settings (λexc=680/30 nm for 0.18 s, λem=570/100 nm after 37 ms). The resulting bell-shaped curve is an indication of a positive interaction, while a flat line reflects a lack of interaction between the proteins. The measurement of each protein pair was repeated in triplicate.
I is the highest signal level (top of the hook effect curve) and Ineg is the lowest (background) signal level. The signals were normalized to the Iref signal obtained for the strongest interaction. […] Percentage of interaction was calculated as: […]
The ALPHA-Screen Assay was performed as previously described (Sierecki et al. 2014), using the cMyc detection kit and Proxiplate-384 Plus plates (PerkinElmer). A serial dilution of each sample was measured. The LTE lysate co-expressing the proteins of interest was diluted in buffer A (25 mM HEPES, 50 mM NaCl). For the assay, 12.5 μL (0.4 μg) of Anti-cMyc coated Acceptor Beads in buffer B (25 mM HEPES, 50 mM NaCl, 0.001% NP40, casein) were aliquoted into each well. This was followed by the addition of 2 μL of diluted sample and 2 μL of biotin labeled GFP-Nanotrap in buffer A. The plate was incubated for 45 min at RT. Afterward, 2 μL (0.4 μg) of Streptavidin coated Donor Beads diluted in buffer A, were added, followed by incubation in the dark for 45 min at RT. The ALPHA-Screen signal was obtained on an Envision Multilabel Plate Reader (PerkinElmer), using the manufacturer's recommended settings (excitation: 680/30 nm for 0.18 s, emission: 570/100 nm after 37 ms). The resulting bell-shaped curve is an indication of a positive interaction, while a flat line reflects a lack of interaction between the proteins. The measurement of each protein pair was repeated a minimum of three times using separate plates. The Binding Index was calculated as: BI=[(I−I_neg)/(I_ref−I_neg)]×100
For PPI disruption assay, protein pairs expressed in LTE were incubated for 1 h with 100 μM Sm4 or DMSO alone (0.7% DMSO final). 100 μM Sm4 or DMSO was also added to buffer B. PPI disruption was calculated as: (1−I_Sm4/I_DMSO)×100.
For IC50 determination, the assay was identical but a dilution range of Sm4 was used (0.3 to 300 μM). Percentage of interaction was calculated as: I_Sm4/1 DMSO×100. Data from at least 3 independent experiments were fitted in GraphPad Prism (RRID: SCR_007370) version 6.0 using 3-parameter non-linear regression.

Chain of SOX18[109] HMG fragment (P43680 69-177): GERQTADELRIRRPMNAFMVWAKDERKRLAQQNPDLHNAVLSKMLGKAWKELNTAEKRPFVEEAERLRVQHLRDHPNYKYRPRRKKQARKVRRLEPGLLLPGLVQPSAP

Row | FP bound fraction (%) 50 μM (SOX18[109] HMG fragment; 50 μM, SOX18/DNA binding) [%] | FP bound fraction (%) 200 μM (SOX18[109] HMG fragment; 200 μM, SOX18/DNA binding) [%] | inhibitory activity in respect of SOX18-SOX18 homodimerization (SOX18-SOX18 homodimer) | remaining activity at 50 µM (SOX18[109] HMG fragment; 50 μM, SOX18/DNA binding) [%] | remaining activity at 200 µM (SOX18[109] HMG fragment; 200 μM, SOX18/DNA binding) [%] | SOX18-DNA binding inhibition (FP, words) (SOX18[109] HMG fragment; SAR library, SOX18[109]) | Structure (SMILES)
1 | 98.5 ± 5.9 | 128.3 ± 17.2 | some inhibitory activity | – | – | – | CCN(CC)C(=O)c1c(O)cc(O)cc1CCc1ccc2ccccc2c1 [Sm26, N,N,diethyl-2,4-hydroxy-6-(2-(naphthalen-2-yl)ethyl)benzamide]
2 | – | – | some inhibitory activity | 101 ± 12.1 | 92.7 ± 14.7 | not active | Oc1cc(CCc2ccccc2)cc(O)c1O [Sm40, 5-phenethylbenzene-1,2,3-triol]
3 | – | – | some inhibitory activity | 94.2 ± 1.9 | 101 ± 1.5 | – | COc1cc(C)cc(/C=C/c2ccc3ccccc3c2)c1C(=O)O [Sm34, (E)-2-methoxy-4-methyl-6-(2-(naphthalen-2-yl)vinyl)benzoic acid]

Reference: US20240002326A1, “COMPOUNDS AND USE THEREOF IN METHODS OF TREATMENT” (The University of Queensland, priority 2016, published 2024)
